We go through seven compounds from publication PMC3627359 (Journal of medicinal chemistry, 2013).

Read-outs that look alike come from different tables or passages of the source.

Data set [1] in a line: In vitro microsomal stability. In kind it is in vitro ADME. The settings on record: Human microsomes, data from Apredica.
Data set [2] is described as follows: In vitro microsomal stability. The data set is classed as in vitro ADME. As to conditions: Mouse microsomes, data from Apredica.
Data set [3] can be described thus: In vitro Caco-2 permeability. As to conditions: human. The data set is classed as in vitro ADME.
The conditions of data set [4]: cited from earlier work.
Data set [5] relates to cortical neurons. Kind of data set: Primary cortical neuron protection assay. The data set is classed as cell-based.
Data set [6] relates to PC12 cells expressing G93A SOD1. Kind of data set: Mutant SOD1-induced cytotoxicity protection assay. In kind it is cell-based.

Consider `O=c1cc(COc2cc(Cl)cc(Cl)c2)[nH][nH]1` [Compound 1], for which the “NADPH-absent CLint (microsomal intrinsic clearance)” value (“NADPH-absent CLint” for short) in data set [1] came out at 13 mL/min/kg; in data set [2], 21 mL/min/kg. The results for the “NADPH-dependent CLint (microsomal intrinsic clearance)” value (shortened to “NADPH-dependent CLint”) in data set [1] and in data set [2] were 25 mL/min/kg and 64 mL/min/kg, respectively. Besides, the efflux ratio (usually the permeability from basolateral to apical divided by that in the opposite direction, in the common usage) in data set [3] came out at 0.4. Moreover, the values for the AUC/dose in data set [4] (i.v. administration) and in data set [4] (p.o. administration) were 184 ng*h/mL/dose and 50 ng*h/mL/dose, respectively. For the same compound, the PK half-life in data set [4] (in vivo PK) is 3.6 h. For the same compound, the Oral bioavailability in data set [4] (p.o. vs i.v.) is listed as 27%.

In the case of `O=c1cc(CNc2cc(Cl)cc(Cl)c2)[nH][nH]1` [Compound 2, 5-((3,5-Dichlorophenylamino)methyl)-1H-pyrazol-3(2H)-one], in data set [1], the “NADPH-absent CLint” value is 0 mL/min/kg and the “NADPH-dependent CLint” value came to 24 mL/min/kg. Also, in data set [2], the “NADPH-absent CLint” value amounted to 23 mL/min/kg and the “NADPH-dependent CLint” value stood at 78 mL/min/kg.

Regarding `CN(Cc1cc(=O)[nH][nH]1)c1cc(Cl)cc(Cl)c1` [Compound 3, 5-(((3,5-Dichlorophenyl)(methyl)amino)methyl)-1H-pyrazol-3(2H)-one], in data set [5] (10 μM concentration), the Neuronal activity recovered is given as 100%. In addition, the “NADPH-absent CLint” value in data set [1] and in data set [2] was 0 mL/min/kg throughout. Also, the “NADPH-dependent CLint” value came to 0 mL/min/kg in data set [1] and 93 mL/min/kg in data set [2].

Consider `CN(CCCc1cc(=O)[nH][nH]1)c1cc(Cl)cc(Cl)c1` [Compound 24, 5-(3-((3,5-Dichlorophenyl)(methyl)amino)propyl)-1H-pyrazol-3(2H)-one], for which the “Activity with cortical neurons” value in data set [5] is listed as “not active”.

Regarding `O=c1[nH][nH]c2c1CN(c1cc(Cl)cc(Cl)c1)CC2` [Compound 27, 5-(3,5-Dichlorophenyl)-4,5,6,7-tetrahydro-1H-pyrazolo[4,3-c]pyridin-3(2H)-one], the “Activity with cortical neurons” value in data set [5] is given as “not active”.

Regarding `CN(Cc1cc(=O)n(Cc2ccccc2)[nH]1)c1cc(Cl)cc(Cl)c1` [Compound 29, 2-Benzyl-5-(((3,5-dichlorophenyl)(methyl)amino)methyl)-1H-pyrazol-3(2H)-one], the “Activity in the PC12 assay” value in data set [6] was “comparable in activity to parent compound 3”.

With `CN(Cc1cc(=O)n(C)[nH]1)c1cc(Cl)cc(Cl)c1` [Compound 30, 5-(((3,5-Dichlorophenyl)(methyl)amino)methyl)-2-methyl-1H-pyrazol-3(2H)-one], the “Activity in the PC12 assay” value in data set [6] is “comparable in activity to parent compound 3”.
